The source of these data is patent US20200022995A1, “Novel Immunodulating Small Molecules” (AyuVis Research, Inc., priority 2018, published 2020).

One assay concerns the target T1, TLR9 (Homo sapiens, UniProt Q9NR96).
T1 construct: endogenous in cells; host or cells: hPBMC
T1 sequence (Q9NR96 26-1032): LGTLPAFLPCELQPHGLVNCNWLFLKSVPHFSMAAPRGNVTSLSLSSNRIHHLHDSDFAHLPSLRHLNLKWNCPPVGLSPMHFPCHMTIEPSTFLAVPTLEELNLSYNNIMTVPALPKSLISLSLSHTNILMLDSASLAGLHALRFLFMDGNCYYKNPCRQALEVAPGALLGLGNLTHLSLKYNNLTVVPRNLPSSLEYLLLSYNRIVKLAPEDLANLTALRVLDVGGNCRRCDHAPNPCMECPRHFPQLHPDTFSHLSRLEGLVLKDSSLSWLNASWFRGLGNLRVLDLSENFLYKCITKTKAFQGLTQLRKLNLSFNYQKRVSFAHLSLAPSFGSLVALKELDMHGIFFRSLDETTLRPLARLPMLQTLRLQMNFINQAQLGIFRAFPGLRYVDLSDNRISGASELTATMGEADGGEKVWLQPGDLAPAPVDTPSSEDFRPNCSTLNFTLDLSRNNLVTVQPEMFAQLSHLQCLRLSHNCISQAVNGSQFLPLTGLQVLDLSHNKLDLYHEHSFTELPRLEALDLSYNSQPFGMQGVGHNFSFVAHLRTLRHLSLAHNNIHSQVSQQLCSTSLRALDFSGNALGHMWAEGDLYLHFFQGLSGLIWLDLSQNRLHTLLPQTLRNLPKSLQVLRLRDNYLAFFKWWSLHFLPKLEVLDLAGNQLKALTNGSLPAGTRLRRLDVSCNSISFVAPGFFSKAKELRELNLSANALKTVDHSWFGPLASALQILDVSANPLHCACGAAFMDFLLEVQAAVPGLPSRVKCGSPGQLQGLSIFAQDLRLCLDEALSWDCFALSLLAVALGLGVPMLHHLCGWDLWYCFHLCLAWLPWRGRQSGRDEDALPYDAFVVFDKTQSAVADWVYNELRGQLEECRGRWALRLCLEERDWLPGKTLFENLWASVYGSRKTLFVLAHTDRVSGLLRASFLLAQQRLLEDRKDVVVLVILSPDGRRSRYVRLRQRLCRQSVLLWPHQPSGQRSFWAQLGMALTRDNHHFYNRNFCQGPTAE
Kind of assay: IFN-α ELISA in hPBMC with TLR9 ligand ODN2216. The assay is classed as cell-based. The following applies: 48 h. Here is the method: Compound 8 antagonizes the TLR9 activities and downregulates the production of IFN-α in combination with TLR9 ligand ODN2216 in hPBMC after 48 h of treatment as detected by ELISA (FIG. 11).
A general note: ELISA stands for enzyme-linked immunosorbent assay.

The test system of another assay is THP-1 cells. Kind of assay: Monocyte differentiation, phagocytosis and intracellular killing of Pseudomonas aeruginosa in THP-1 cells. In kind it is cell-based, human. From the text: Two of these compounds 8 and 32 stimulated monocyte differentiation into macrophages, increased phagocytosis of Pseudomonas aeruginosa (FIG. 18) and increased intracellular killing of bacteria (FIG. 19). These compounds have potential to be used as vaccine adjuvants and in combination with existing antibiotic for prophylactic treatment such as in cystic fibrosis patients.

The subject of assay [1] is E. coli, P. aeruginosa, A. baumanni, MRSA. Kind of assay: Broth dilution assay against gram negative and gram positive bacteria. The assay is classed as cell-based. For orientation: Broth dilution looks for growth in wells or tubes with falling amounts of substance.
The target of assay [2] is T2, TLR4 (Homo sapiens, UniProt O00206). Kind of assay: TLR4 inhibitory and activating activity in THP-1 cells. The assay is classed as cell-based. Also on record: endogenous in cells; host or cells: THP-1 monocytes, PMA-stimulated.
T2 sequence (O00206 24-839): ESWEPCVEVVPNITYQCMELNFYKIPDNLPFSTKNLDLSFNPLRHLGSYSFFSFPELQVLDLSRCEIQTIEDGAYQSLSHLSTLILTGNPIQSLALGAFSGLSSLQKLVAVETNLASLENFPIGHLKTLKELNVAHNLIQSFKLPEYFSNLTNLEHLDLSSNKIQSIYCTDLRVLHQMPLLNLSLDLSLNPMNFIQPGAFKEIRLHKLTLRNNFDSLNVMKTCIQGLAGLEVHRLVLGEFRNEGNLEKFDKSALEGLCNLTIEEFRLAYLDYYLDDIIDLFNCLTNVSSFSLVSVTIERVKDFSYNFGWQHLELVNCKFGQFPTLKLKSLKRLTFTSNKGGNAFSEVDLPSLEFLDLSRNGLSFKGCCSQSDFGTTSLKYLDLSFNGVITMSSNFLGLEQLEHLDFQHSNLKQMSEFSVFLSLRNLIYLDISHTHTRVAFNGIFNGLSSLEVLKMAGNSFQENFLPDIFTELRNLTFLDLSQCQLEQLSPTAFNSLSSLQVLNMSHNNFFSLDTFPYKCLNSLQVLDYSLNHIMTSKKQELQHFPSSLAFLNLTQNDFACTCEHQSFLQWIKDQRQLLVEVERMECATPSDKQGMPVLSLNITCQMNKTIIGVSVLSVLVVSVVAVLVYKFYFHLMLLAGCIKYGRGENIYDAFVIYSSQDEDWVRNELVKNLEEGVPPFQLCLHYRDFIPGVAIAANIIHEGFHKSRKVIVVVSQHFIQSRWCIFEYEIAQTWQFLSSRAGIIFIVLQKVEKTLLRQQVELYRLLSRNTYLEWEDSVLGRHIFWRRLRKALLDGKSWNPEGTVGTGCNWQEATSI
In the next assay the test system is TLR7/8. Kind of assay: IL-1β ELISA in hPBMC, alone or with TLR7/8 ligand CL075. The assay is classed as cell-based, human. From the text: Compound 8 modulates the TLR7/8 activities in a concentration dependent manner.
In assay [3] the target is T2, TLR4. The assay can be described thus: IL-1β ELISA in hPBMC, alone or with TLR4 ligand LPS. The arrangement: endogenous in cells. The assay is classed as cell-based. From the text:
Compound 8 modulates the TLR4 activities in a concentration dependent manner.

For assay [4], the system named is P. aeruginosa (ATCC-10145 GFP) infected skin wounds. The assay can be described thus: Murine skin wound infection with P. aeruginosa. In kind it is in vivo, C57BL/6 mice. The method, then:
Five groups of C57BL/6 mice (8-10 weeks old, n=4) were wounded on the dorsal surface. 25 ul containing 10^6 CFU/mL P. aeruginosa in a PBS suspension were pipetted onto the wound and allowed to absorb for at least 3 min. […] Subsequently and for the next 13 days, infected wounds were treated each alternate day with colistin, or with test compounds.

A word on the MIC90: it is the lowest concentration that inhibits either 90% of growth or 90% of the strains tested, depending on the study. Low values mean greater potency, high ones weaker potency. Usually MIC stands for the smallest concentration in the dilution series that meets the test's criterion for growth inhibition.

SMILES strings stand for the structures. Converted amounts (≈) assume the structure as drawn.

On to `CC(=O)N[C@H]1[C@H](Oc2ccc([N+](=O)[O-])cc2)O[C@H](CO)[C@@H](O)[C@@H]1O` [Compound 8, p-Nitrophenyl 2-acetamido-2-deoxy-β-D-glucopyranoside], for which the “production of IFN-α” value at TLR9 was “downregulates”. Besides, the “monocyte differentiation into macrophages” value with THP-1 cells is listed as “stimulated”. In addition, the “intracellular killing of bacteria” value with THP-1 cells (Pseudomonas aeruginosa, THP-1 cells) is on record as “increased”. In the assay with THP-1 cells (THP-1 cells), the “phagocytosis of Pseudomonas aeruginosa” value is given as “increased”. This compound came in with an MIC90 in assay [1] (compound alone, range over the bacteria screened) of 50 to 200 µg/mL (≈ 146 to 584 µM). Also, the minimal inhibitory concentration (MIC) in assay [1] (in combination with colistin) fell in the range of 3.1 to 6.25 µg/mL. The “TLR2/4 antagonist or TLR4 agonist activity as shown in Table-1” value on TLR4 [2] is reported as “potent TLR2/4 antagonists”. Besides, the IL-1β protein level result was “downregulate” in the assay on TLR7/8 (0.1 μM to <1 μM, alone or with CL075, hPBMC, 24 h, ELISA) and “downregulate” on TLR4 [3] (0.1 μM to <1 μM, alone or with LPS, 24 h, ELISA). For the same compound, the “production of IL-1β” value in the assay with TLR7/8 (1.0 μM, alone and with CL075, hPBMC) is given as “significantly stimulated”; on TLR4 [3] (1.0 μM, alone and with LPS) it was “significantly stimulated”. For the same compound, the “wound closure at day 13” value in assay [4] (25 μl Colistin 4 μg/ml or compound 100 μg/ml, each alternate day) is listed as “complete closure”. Besides, in assay [4] (13 days post infection), the “bacterial numbers versus untreated control” value is “statistically significant reduction”. Besides, the “re-epithelialization and granulation tissue versus controls” value in assay [4] (H&E histology, day 13 post-injury) is “borderline non-significant”. Moreover, the CFU in tissues result in assay [4] (topical, 100 μM, C57BL6 mice) is recorded as “decreased”. Further, the “closure of P. aeruginosa infected skin wounds” value in assay [4] (topical, 100 μM, C57BL6 mice) was “effectively closed”.
